Assay results taken from patent publication US20050113319A1, “11-Deoxy-6,9-ether erythromycin compounds” (priority 2003, published 2005).
≈ marks a conversion by molar mass, not a printed value. Like-named read-outs stand apart in the source and are kept apart here.

Key:
motilin receptor [1] = biological target: T1, motilin receptor (Homo sapiens, UniProt O43193); test: Motilin agonist activity (activation of the motilin receptor); format: cell-based
Experimental: Compounds of this invention were tested for motilin agonist activity, following the procedure of Carreras et al., Anal. Biochem., 300, 146-151 (2002), the disclosure of which is incorporated herein by reference.

motilin receptor [2] = biological target: T1, motilin receptor; test: Motilin receptor desensitization, cell-based assay; conditions: for Activity retained following exposure, 1 μM Compound: motilin receptor activity retained after exposure to 1 μM test compound; for Activity retained following exposure, 10 μM Compound: motilin receptor activity retained after exposure to 10 μM test compound
Experimental: Compounds were tested for motilin receptor desensitization using the cell-based assay described in Carreras et al., U.S. 2002/0192709 A1 (2002), “Methods for Evaluating Therapeutic Efficacy,” incorporated herein by reference. Briefly, the test measures the extent of motilin receptor activity retained after exposure to varying amounts (1 and 10 μM) of test compound.

[3] = test system: Streptococcus pneumoniae ATCC 6301; test: In vitro antibacterial activity; format: cell-based; conditions: ATCC6301
Experimental: Compounds of this invention were tested for in vitro activity against Streptococcus pneumoniae ATCC 6301, an erythromycin-sensitive strain, using methods known in the microbiological art.

T1 sequence (O43193 whole entry): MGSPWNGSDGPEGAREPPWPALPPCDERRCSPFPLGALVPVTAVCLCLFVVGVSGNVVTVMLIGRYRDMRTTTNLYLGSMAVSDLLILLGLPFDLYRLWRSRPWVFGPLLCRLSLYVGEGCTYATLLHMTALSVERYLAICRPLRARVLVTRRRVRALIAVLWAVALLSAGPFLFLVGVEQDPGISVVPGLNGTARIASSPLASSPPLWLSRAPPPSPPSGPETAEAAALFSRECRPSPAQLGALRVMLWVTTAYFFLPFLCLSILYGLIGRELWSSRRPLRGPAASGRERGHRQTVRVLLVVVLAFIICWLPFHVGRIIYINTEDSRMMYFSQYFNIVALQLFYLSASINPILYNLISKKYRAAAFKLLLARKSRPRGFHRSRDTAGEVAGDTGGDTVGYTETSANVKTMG

SMILES | EC50 (motilin receptor [1]) [nM] | Activity retained following exposure, 1 μM Compound (motilin receptor [2]) | Activity retained following exposure, 10 μM Compound (motilin receptor [2]) | MIC ([3]; Streptococcus pneumoniae) [µg/mL] | MIC ([3]; Streptococcus pneumoniae ATCC 6301, erythromycin-sensitive strain, read-out: MIC) [µg/mL]
CC[C@H]1OC(=O)[C@H](C)[C@@H](O[C@H]2C[C@@](C)(OC)[C@@H](O)[C@H](C)O2)[C@H](C)[C@@H](O[C@@H]2O[C@H](C)C[C@H](N(C)C)[C@H]2O)[C@@]2(C)C[C@@H](C)[C@H](O2)[C@H](C)C[C@H]1C [Compound IVb] | 230 | 57 % of original | 49 % of original | 100 (≈ 146 µM) | 
CC[C@H]1OC(=O)[C@H](C)[C@@H](O[C@H]2C[C@@](C)(OC)C[C@H](C)O2)[C@H](C)[C@@H](O[C@@H]2O[C@H](C)C[C@H](N(C)C(C)C)[C@H]2O)[C@@]2(C)C[C@@H](C)[C@H](O2)[C@H](C)C[C@H]1C [Compound IVc] | 13 | 9 % of original | 5 % of original | 50 (≈ 71.6 µM) | 
CC[C@H]1OC(=O)[C@H](C)[C@@H](O[C@H]2C[C@@](C)(OC)C[C@H](C)O2)[C@H](C)[C@@H](O[C@@H]2O[C@H](C)C[C@H](N(C)C)[C@H]2O)[C@@]2(C)C[C@@H](C)[C@H](O2)[C@H](C)C[C@H]1C [Compound IVa] | 42 | 24 % of original | 7 % of original | 25 (≈ 37.3 µM) | 
CC[C@H]1OC(=O)[C@H](C)[C@@H](O[C@H]2C[C@@](C)(OC)C[C@H](C)O2)[C@H](C)[C@@H](O[C@@H]2O[C@H](C)C[C@H](N(C)CCF)[C@H]2O)[C@@]2(C)C[C@@H](C)[C@H](O2)[C@H](C)C[C@H]1C [Compound IVd] | 45 | 7 % of original | 5 % of original |  | > 100
